{"source": "paper PMC7721897", "about": "“Metabolism and pharmacokinetics of a novel polyphenol fatty acid ester phloridzin docosahexaenoate in Balb/c female mice” (Scientific Reports, 2020)", "key": {"[1]": {"test_system": "mammary carcinoma cells, including MDA-MB-231 and 4T1", "design": "method as in PMID 31473253", "conditions": "20 µM for PZ-DHA; cited from earlier work"}, "[2]": {"test_system": "mammary carcinoma cells (MDA-MB-231, MDA-MB-468, 4T1, MCF-7) and MCF-10A", "design": "method as in PMID 27535497", "conditions": "cited from earlier work"}, "[3]": {"experiment": "Serum pharmacokinetics after intraperitoneal injection", "type": "in vivo, Balb/c female mice", "conditions": "100 mg/kg intraperitoneal; for Cmax: read-out: Maximum serum concentration (Cmax)", "experimental": "Figure 4 Intraperitoneal administration of PZ-DHA results in absorption into the systemic circulation of Balb/c female mice. PZ-DHA (100 mg/kg) was administered by intraperitoneal injection to Balb/c female mice. Blood collection was performed and serum was separated. PZ-DHA was identified and quantified using a calibration curve (R^2 = 0.99) generated using a standard series of PZ-DHA concentrations made in mouse serum. PZ-DHA concentration was plotted against time. The elimination rate of PZ-DHA was determined using a semi-log curve of PZ-DHA concentration vs. time curve.\nPharmacokinetic parameters and in vivo generation of PZ-DHA metabolites were studied using Balb/c female mice. Mice were randomly divided into six groups (n = 4/group) and PZ-DHA (100 mg/kg) was administered by intraperitoneal injection. For each mouse, a single blood collection was performed by cardiac puncture at one of six different time points (t = 15, 30, 60, 90, 120, and 240 min). At the end of blood collection, mice were euthanized by cervical dislocation and organs (liver, lungs, kidneys, spleen, and brain) were harvested. Blood samples were allowed to clot by leaving undisturbed at room temperature for 1 h, and serum was separated by centrifuging at 2000×g for 10 min at 4 °C. The serum was carefully removed and stored on ice until further processing. Serum proteins were precipitated by incubating an aliquot of serum with a mixture of acetonitrile:acetone (80:20) containing 0.1 mg/mL quercetin (internal standard) at 4 °C overnight. The supernatant was separated by centrifuging at 14,000×g for 10 min at 4 °C. Excess solvent was evaporated using nitrogen flush and mixed with methanol and filtered. PZ-DHA-metabolites in the filtrate were identified using a UPLC-ESI–MS/MS (Waters Limited, Mississauga, ON, Canada). Organs were homogenized in PBS (1:5 w/v). Supernatants were collected by centrifugation at 14,000 × g for 15 min at 4 °C. Proteins were precipitated by incubating in acetonitrile:acetone (80:20) containing 0.1 mg/mL quercetin (internal standard) at 4 °C overnight. Supernatants were treated as explained above, and PZ-DHA and/or PZ-DHA-metabolites were identified.\nA calibration curve (R^2 = 0.99) generated using a standard series of PZ-DHA concentrations prepared in mouse serum (spiked with 0.1 mg/mL quercetin) was used for the quantification of PZ-DHA. The average PZ-DHA concentrations were plotted against time. The maximum serum concentration of serum (Cmax) and the time to reach Cmax (Tmax) were read directly from the graph. The linear trapezoidal method was used to calculate the area under the curve (AUC) from t = 0 to infinity, the biological half-life of PZ-DHA (t1/2), determined using the plotted curve in Graphpad Prism software (version 5; La Jolla, CA, USA). The clearance following IP administration was determined by non-compartmental analysis using the relationship CL/F = D/AUC. The elimination rate constant λ was determined by linear regression of the elimination phase of the semi-log transformed concentration versus time curve. The t1/2 was calculated using the formula 0.693/λ and the volume of distribution Vd/F from the formula Vd/F = CL/(F*λ)."}, "[4]": {"test_system": "4T1 breast cancer cells", "design": "method as in PMID 31473253", "conditions": "intraperitoneal, 100 mg/kg every 2 days for 10 days; cited from earlier work"}}, "note": "Read-outs that look alike come from different tables or passages of the source."}
{"smiles": "CC/C=C\\C/C=C\\C/C=C\\C/C=C\\C/C=C\\C/C=C\\CCC(=O)OC[C@H]1O[C@@H](Oc2cc(O)cc(O)c2C(=O)CCc2ccc(O)cc2)[C@H](O)[C@@H](O)[C@@H]1O", "note": "[PZ-DHA, phloridzin docosahexaenoate]", "values": [{"measurement": "migration and invasion of mammary carcinoma cells", "setting": "[1]", "result": "significantly inhibits"}, {"measurement": "selective cytotoxicity, malignant versus non-malignant cells", "setting": "[2]", "result": "selectively kills mammary carcinoma cells"}, {"measurement": "Clearance (CL/F)", "setting": "[3]", "result": 1.37, "unit": "mL/min"}, {"measurement": "Volume of distribution (Vd/F)", "setting": "[3]", "result": 56.5, "unit": "mL"}, {"measurement": "Biological half-life (T1/2)", "setting": "[3]; serum", "result": 28.7, "unit": "min"}, {"measurement": "Cmax", "setting": "[3]; serum", "result": 23.4, "unit": "µM"}, {"measurement": "serum detectability at the last measured time", "setting": "[3]; 240 min", "result": "remained detectable"}, {"measurement": "Tmax", "setting": "[3]; female, Balb/c, mouse, ip, serum, read-out: Time to reach maximum serum concentration (Tmax) (converted)", "result": 1, "unit": "h"}, {"measurement": "half-life", "setting": "[3]; female, Balb/c, mouse, serum, ip, 100 mg/kg, serum, read-out: Biological half-life (T1/2)", "result": 28, "unit": "min"}, {"measurement": "Cmax", "setting": "[3]; female, Balb/c, mouse, serum, ip, 100 mg/kg, serum", "result": 23.7, "unit": "µM"}, {"measurement": "Vd/F", "setting": "[3]; female, Balb/c, mouse, serum, ip, 100 mg/kg, read-out: Volume of distribution (Vd/F)", "result": 0.057, "unit": "L"}, {"measurement": "AUC", "setting": "[3]; female, Balb/c, mouse, serum, ip, t = 0 to infinity, read-out: The area under the curve (AUC) (converted)", "result": 36.6, "unit": "µM·h"}, {"measurement": "k el", "setting": "[3]; female, Balb/c, mouse, serum, ip, read-out: Elimination rate (λz) (converted)", "result": 0.0004, "unit": "s⁻¹"}, {"measurement": "concentration at 15 min", "setting": "[3]; female, Balb/c, mouse, serum, ip, 15 min, read-out: serum concentration at the 1st measured time point", "result": "900 ± 400", "unit": "nM"}, {"measurement": "tumor growth and metastasis of 4T1 breast cancer cells", "setting": "[4]", "result": "inhibits tumor growth and metastasis"}]}
